According to the NIST ThermoML archive (doi:10.1016/j.jct.2005.08.018):
± gives the expanded uncertainty stated by the source.

Key:
[1] = 298.15 K; 101 kPa; Liquid
[2] = mn = molality of the nth substance listed, in mol/kg; conditions: 298.15 K, 101 kPa, Liquid

c1ccccc1 [benzene]
mass density [1]: 873.71 ± 0.78 kg/m3 | speed of sound [1]: 1298.2 ± 2.8 m/s

ClC(Cl)(Cl)Cl [tetrachloromethane] + CCCC[N+](CCCC)(CCCC)CCCC.[Br-]
mass density ([2]; m2 = 0): 1584.35 ± 2.2 kg/m3 | speed of sound ([2]; m2 = 0): 921.7 ± 2.4 m/s | mass density ([2]; m2 = 0.0289): 1578.53 ± 2.2 kg/m3 | speed of sound ([2]; m2 = 0.0289): 926.4 ± 2.4 m/s | mass density ([2]; m2 = 0.0459): 1575.17 ± 2.2 kg/m3 | speed of sound ([2]; m2 = 0.0459): 929.4 ± 2.4 m/s | mass density ([2]; m2 = 0.0609): 1572.21 ± 2.2 kg/m3 | speed of sound ([2]; m2 = 0.0609): 931.7 ± 2.4 m/s | mass density ([2]; m2 = 0.0759): 1569.3 ± 2.2 kg/m3 | speed of sound ([2]; m2 = 0.0759): 933.7 ± 2.4 m/s | mass density ([2]; m2 = 0.1041): 1563.88 ± 2.2 kg/m3 | speed of sound ([2]; m2 = 0.1041): 939.5 ± 2.4 m/s | mass density ([2]; m2 = 0.3475): 1520.79 ± 2 kg/m3 | speed of sound ([2]; m2 = 0.3475): 982 ± 2.4 m/s | mass density ([2]; m2 = 0.5626): 1488.36 ± 1.9 kg/m3 | speed of sound ([2]; m2 = 0.5626): 1017.5 ± 2.5 m/s | mass density ([2]; m2 = 0.8165): 1456.84 ± 1.8 kg/m3 | speed of sound ([2]; m2 = 0.8165): 1057.6 ± 2.5 m/s

ClC(Cl)(Cl)Cl [tetrachloromethane]
mass density [1]: 1584.35 ± 2.2 kg/m3 | speed of sound [1]: 921.7 ± 2.4 m/s

CCCC[N+](CCCC)(CCCC)CCCC.[Br-] [tetrabutylammonium bromide] + c1ccccc1
mass density ([2]; m1 = 0.0154): 874.64 ± 0.78 kg/m3 | speed of sound ([2]; m1 = 0.0154): 1298.6 ± 2.8 m/s | mass density ([2]; m1 = 0.0485): 876.48 ± 0.78 kg/m3 | speed of sound ([2]; m1 = 0.0485): 1299.4 ± 2.8 m/s | mass density ([2]; m1 = 0.0662): 877.4 ± 0.77 kg/m3 | speed of sound ([2]; m1 = 0.0662): 1300.6 ± 2.8 m/s | mass density ([2]; m1 = 0.0827): 878.36 ± 0.77 kg/m3 | speed of sound ([2]; m1 = 0.0827): 1300.8 ± 2.8 m/s | mass density ([2]; m1 = 0.1724): 883.19 ± 0.76 kg/m3 | speed of sound ([2]; m1 = 0.1724): 1301.4 ± 2.8 m/s | mass density ([2]; m1 = 0.3622): 893.1 ± 0.74 kg/m3 | speed of sound ([2]; m1 = 0.3622): 1310.1 ± 2.8 m/s | mass density ([2]; m1 = 0.5773): 903.19 ± 0.72 kg/m3 | speed of sound ([2]; m1 = 0.5773): 1316.4 ± 2.8 m/s | mass density ([2]; m1 = 0.8062): 913.08 ± 0.7 kg/m3 | speed of sound ([2]; m1 = 0.8062): 1324.6 ± 2.9 m/s

c1ccccc1 [benzene] + CCCC[N+](CCCC)(CCCC)CCCC.[Br-]
mass density ([2]; m2 = 0): 873.71 ± 0.78 kg/m3 | speed of sound ([2]; m2 = 0): 1298.2 ± 2.8 m/s
